From patent US5302609A, “Treatment of diabetic nephropathy” (The Regents of the University of Michigan, priority 1992, dated 1994)
Where two headings read alike, the source gives them in different places.

Legend:
[1] = test system: non-diabetic control male rats; test: PDMP treatment of non-diabetic control rats; type: in vivo, rat
Experimental: (§1) Because there is gender specific expression of renal GSLs, only male rats were used. Shukla, A. et al., am. J. Physiol. 262: F24-F29 (1992). Male rats were fed a standard pellet laboratory chow and were provided with water ad libitum. Diabetes was induced by the administration of streptozotocin (80 mg/kg i.p.) dissolved in 10 mM Na citrate, pH 5.5. Controls were injected with buffer alone. Animals were provided with immediate access to food. Blood was obtained from the tail vein and blood glucose levels were determined with a Beckman glucose analyzer 48 h following the injection and at the time of organ resection. […] Therefore only animals with blood glucose concentrations between 13.5 and 32 mM were utilized. At the end of the experimental period, the animals were weighted, anesthetized with ether, and their kidneys removed and weighed. For UDP-Glc measurements, the kidneys were frozen in liquid nitrogen immediately following removal.
(§2) The GlcCer synthase inhibitor PDMP was administered as the DL-hydrochlorideto both diabetic and control animals 14 days following the induction of diabetes with streptozotocin (see Table IV results). […] See Shukla, A. et al., J. Lipid. Res. 32:713-722 (1991). The piperonyl butoxide was prepared by dissolution in corn oil at a concentration of 150 mg/ml oil. The butoxide solution was administered intraperitoneally prior to injection of PDMP. On the first day of treatment this was given 4 h before PDMP treatment; on days 2 to 4 of treatment it was administered just prior to the PDMP injection. PDMP was prepared as an emulsion with the detergent Myrj 52 in normal saline, buffered with sodium acetate. The final concentrations of PDMP, Myrj 52 and sodium acetate in mg/ml were 6, 12, and 8 respectively. The PDMP was given intraperitoneally as a dose of 100 mg/kg body weight.
(§3) Glomerular volumes were measured on paraffin sections of kidney fixed in formalin and stained with periodic acid Schiff reagent. The measurements required the determination of the mean glomerular random cross sectional area (A(G)). Glomerular areas were measured using a Javelin Chromachip camera (Javelin Electronics, Torrance, Calif.) attached to an Olympus BH-2 microscope interfaced with a Macintosh II computer containing an Image Capture 2 frame grabber (Scion Corp., Walkerville, Md.) and image 1.38B14 software (NIH Public Software, Bethesda, Md.). Glomerular volumes were derived by the method described in Weibel "Stereological Methods. Practical Methods for Biological Morphometry," (academic Press, London) p. 44-45 (1979) as applied by Hirose, K. et al., Kidney Int. 21:689-695 (1982).
(§4) To determine whether the increase in glucolipid formation in diabetes was functionally important, the following experiment was performed. One group of animals was made diabetic with streptozotocin, and the other group received vehicle alone. After two weeks, the control and diabetic groups were divided according to the weights of the rats. Half of the non-diabetic and half of the diabetic animals received DL-threo-PDMP, which is the racemic mixture of the compound of the Formula I where n is 8. The control non-diabetic and diabetic groups were pair fed and received vehicle alone. After 4 days of treatment the animals were weighed and sacrificed. In Table V, the data are expressed as the mean ± S.D. All animals received the cytochrome P450 inhibitor piperonyl butoxide (600 mg/kg) intraperitoneally. Treated control and diabetic animals received DL-threo-PDMP.

[2] = test system: streptozotocin-induced diabetic male rats; test: PDMP treatment of streptozotocin diabetic rats (renal hypertrophy); type: in vivo, rat
Experimental: as §1, §2, §3, §4

[3] = 100 mg/kg, cited from earlier work
[4] = test system: Madin-Darby canine kidney (MDCK) cells; conditions: Shayman et al. 1991; cited from earlier work
[5] = in vivo
[6] = Control + PDMP, n=11, DL-threo-PDMP 100 mg/kg i.p. 4 days with piperonyl butoxide, mean ± S.D.
[7] = Diabetic + PDMP, n=7, DL-threo-PDMP 100 mg/kg i.p. 4 days with piperonyl butoxide, mean ± S.D.

Compound: CCCCCCCCCC(=O)N[C@H](CN1CCOCC1)[C@H](O)c1ccccc1 (relative stereo) [PDMP, 1-phenyl-2-decanoylamino-3-morpholino-1-propanol]
- Body Weight ([1]; Control + PDMP, n=11, DL-threo-PDMP 100 mg/kg i.p. 4 days with piperonyl butoxide 600 mg/kg i.p., mean ± S.D.): 238 ± 21 g
- BUN [1, 6]: 13 ± 3.2 mg/dL
- Kidney Weight [1, 6]: 2.25 ± 0.27 g
- glomerular size ([1]; morphometric analysis, five kidneys per group, non-diabetic rats): no effect
- Creatinine ([1]; serum, Control + PDMP, n=11, DL-threo-PDMP 100 mg/kg i.p. 4 days with piperonyl butoxide, mean ± S.D.): 0.31 ± 0.09
- kidney weights of PDMP-treated diabetic animals compared with untreated diabetic animals ([2]; 4 days of treatment, animals hyperglycemic): significantly lower
- Body Weight ([2]; Diabetic + PDMP, n=7, DL-threo-PDMP 100 mg/kg i.p. 4 days from 14 days after streptozotocin, with piperonyl butoxide 600 mg/kg i.p., mean ± S.D.): 200 ± 11 g
- BUN [2, 7]: 28 ± 6.4 mg/dL
- Kidney Weight [2, 7]: 2.32 ± 0.19 g
- glomerular volumes compared with control groups ([2]; morphometric analysis, five kidneys per group, diabetic animals treated with PDMP): not significantly different
- renal histology (drug-induced toxicity) ([2]; periodic acid Schiff stained kidney sections: acute tubular necrosis, acute or chronic inflammation, glomerular pathology): no evidence of acute tubular necrosis, acute or chronic inflammation, or glomerular pathology
- Creatinine ([2]; serum, Diabetic + PDMP, n=7, DL-threo-PDMP 100 mg/kg i.p. 4 days with piperonyl butoxide, mean ± S.D.): 0.23 ± 0.05
- half life of PDMP ([3]; animals exposed to the mixed function oxidase inhibitor PB): 4 h
- half life of PDMP ([3]; without piperonyl butoxide (PB)): 1 h
- endogenous glycosphingolipid content [4]: decreased

Compound: CCCCOCCOCCOCc1cc2c(cc1CCC)OCO2 [PB, piperonyl butoxide]
- effect on renal growth or function [5]: no effect

Compound: OC1C(O)C(O)C2OC2C1O (centres unmarked) [conduritol B epoxide, reference compound]
- endogenous glycosphingolipid content [4]: increased
